# Results as given in US7964349B2, “Method to determine responsiveness of cancer to epidermal growth factor receptor targeting treatments” (The General Hospital Corporation, priority 2004, dated 2011).
# “And” between values parts separate entries of the source, which are not always exact repeats. Equal entries are not always repeated. “Also recorded” adds a separate entry of the source.
# What was measured:
# [1] = test system: non-small cell lung cancer (NSCLC); conditions: cited from earlier work
# [2] = test system: non-small cell lung cancer (NSCLC)
# Protocol: A significant clinical response was defined either as a partial response using RECIST criteria for patients with measurable disease, or for patients whose tumor burden could not be quantified using these criteria, an evaluable response was assessed by two physicians.
# [3] = test system: Lung cancer cells harboring EGFR mutations vs cells with wild-type receptor; test: Apoptosis / cell viability (MTT) assay with increasing drug concentrations; format: cell-based, human; conditions: compared with cells expressing only wild-type EGFR
# Protocol: 10,000 cells were seeded into individual wells of a 96-well plate. […] After 96 hours, the viability of cells was determined using the MTT assay. For caspase immunostaining, 10,000 cells were seeded onto 10 mm coverslips. The next day they were transfected with siRNA (see previous section for details). After 72 hours the cells were fixed in 4% paraformaldehyde at room temperature for 10 min. They were subsequently permeabilized for 5 min in 0.5% Triton X-100 and blocked for 1 hr in 5% normal goat serum (NGS). […] The next day the coverslips were washed 3 times in PBS and incubated for 1 hour with secondary antibody (goat anti-rabbit Texas-red conjugated; from Jackson Immunoresearch; West Grove, Pa.) at a 1:250 dilution in 5% normal goat serum and 0.5 μg/ml of DAPI (4′,6-Diamidino-2-phenylindole). After 3 washes in PBS the coverslips were mounted with ProLong Gold anti-fade reagent from Molecular Probes (Eugene, Oreg.).
# 10 μl of 5 mg/ml MTT (Thiazolyl blue; Sigma) solution was added to each well of a 96-well plate. After 2 hours of incubation at 37° C., the medium was removed and the MTT was solubilized by the addition of 100 μl of acidic isopropanol (0.1N HCL) to each well. The absorbance was determined spectophotometrically at 570 nm.
# [4] = test system: advanced NSCLC; test: Randomized trial of carboplatin/paclitaxel with or without erlotinib in advanced NSCLC; format: in vivo, human
# Protocol: Tumor specimens were analyzed from patients with advanced NSCLC treated on the randomized trial of carboplatin/paclitaxel with or without erlotinib.
# [5] = multi-institutional phase II trial
# [6] = single patients 1-9, one per line
molecule,measurement,setting,value
COc1cc2ncnc(Nc3ccc(F)c(Cl)c3)c2cc1OCCCN1CCOCC1 [Gefitinib],patients with dramatic clinical responses,[1]; chemotherapy-refractory NSCLC,approximately 10%
same,side effects of treatment,[1]; generally believed consequence of EGFR inhibition in normal tissues,diarrhea and dermatitis
same,"response rate, Japanese patients",[1]; [5],27.5%
same,"response rate, predominantly European-derived population",[1]; [5],10.4%
same,patients identified as having significant clinical responses,[2]; of a total of 275 patients treated,25 patients
same,"Overall Survival, from the beginning of gefitinib treatment to death",[2]; [6],>14.0 mo and 12.9 mo and >21.4 mo and >7.8 mo and >4.3 mo and 17.9 mo and 18.8 mo
same,Response,[2]; [6],Major; Improved bilateral; also recorded: Partial; improved lung; also recorded: Minor; improved pleural; also recorded: Partial; improved liver; also recorded: Major; improved lung
same,median survival from the start of drug treatment,[2]; the 9 responder patients of Table 1,> 18 months
N.N.[Cl][Pt][Cl] [cisplatin],resistance of EGFR-mutant lung cancer cells to induced cell death signals,[3],markedly increased resistance
COc1cccc2c1C(=O)c1c(O)c3c(c(O)c1C2=O)C[C@@](O)(C(=O)CO)C[C@@H]3O[C@H]1C[C@H](N)[C@H](O)[C@H](C)O1 [doxorubicin],resistance of EGFR-mutant lung cancer cells to induced cell death signals,[3],markedly increased resistance
C#Cc1cccc(Nc2ncnc3cc(OCCOC)c(OCCOC)cc23)c1 [erlotinib],survival in the two treatment arms,[4],equivalent survival
Fas-ligand,resistance of EGFR-mutant lung cancer cells to induced cell death signals,[3],markedly increased resistance
